In BindingDB's records for doi:10.1161/01.cir.102.23.2836 (Nih, 2000) one finds Ki data, which are given here for nine compounds.

The target in assay [1] is T1, 5-hydroxytryptamine receptor 2C (Rattus norvegicus, UniProt P08909).
T1 sequence (P08909 whole entry): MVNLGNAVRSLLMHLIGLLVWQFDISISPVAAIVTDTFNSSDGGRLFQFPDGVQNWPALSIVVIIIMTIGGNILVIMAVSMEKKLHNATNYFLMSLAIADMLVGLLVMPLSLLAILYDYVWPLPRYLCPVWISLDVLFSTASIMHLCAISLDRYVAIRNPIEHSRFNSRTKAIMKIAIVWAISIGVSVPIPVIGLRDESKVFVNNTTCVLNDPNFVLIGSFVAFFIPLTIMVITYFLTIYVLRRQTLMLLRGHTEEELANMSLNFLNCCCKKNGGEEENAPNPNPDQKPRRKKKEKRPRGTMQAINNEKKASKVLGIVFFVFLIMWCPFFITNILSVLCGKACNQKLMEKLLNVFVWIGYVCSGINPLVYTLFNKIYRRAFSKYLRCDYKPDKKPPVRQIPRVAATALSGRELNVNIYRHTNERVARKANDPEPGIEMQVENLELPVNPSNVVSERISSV

Assay [2] addresses 5-hydroxytryptamine receptor 2B (Homo sapiens, UniProt P41595).

Values joined by “and” are separate entries in the source; they are usually repeats but may differ in a detail not shown here. Identical values can stand only once.

5-hydroxytryptamine receptor 2B, sequence (P41595 whole entry): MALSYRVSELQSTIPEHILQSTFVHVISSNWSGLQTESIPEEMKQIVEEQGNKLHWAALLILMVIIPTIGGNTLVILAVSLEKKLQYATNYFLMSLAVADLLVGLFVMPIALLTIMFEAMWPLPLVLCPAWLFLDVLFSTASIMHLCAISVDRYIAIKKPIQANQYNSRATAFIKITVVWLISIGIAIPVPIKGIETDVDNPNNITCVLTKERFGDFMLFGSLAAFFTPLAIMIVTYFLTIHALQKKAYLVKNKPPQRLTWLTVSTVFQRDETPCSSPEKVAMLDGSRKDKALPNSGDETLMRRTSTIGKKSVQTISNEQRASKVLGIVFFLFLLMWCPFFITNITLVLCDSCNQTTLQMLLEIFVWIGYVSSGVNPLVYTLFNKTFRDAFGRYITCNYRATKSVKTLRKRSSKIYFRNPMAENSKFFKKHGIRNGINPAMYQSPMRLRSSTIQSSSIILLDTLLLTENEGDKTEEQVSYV

Take `CC[C@@H](CO)NC(=O)[C@@H]1C=C2c3cccc4c3c(cn4C)C[C@H]2N(C)C1`: the Ki in assay [1] worked out at 1.8 nM.
As for `CC(C)(N)Cc1ccccc1` [2-methyl-1-phenylpropan-2-amine], the inhibitory constant (Ki) in assay [2] and in assay [1] was above 10000 nM in each case.
The compound `O=c1n(CCCN2CCN(c3cccc(Cl)c3)CC2)nc2ccccn12` [2-{3-[4-(3-chlorophenyl)piperazin-1-yl]propyl}[1,2,4]triazolo[4,3-a]pyridin-3(2H)-one] gave a Ki in assay [1] of 402 nM.
Take `CN1C[C@H](C(=O)N[C@]2(C)O[C@@]3(O)[C@@H]4CCCN4C(=O)[C@H](Cc4ccccc4)N3C2=O)C=C2c3cccc4[nH]cc(c34)C[C@H]21` [12'-hydroxy-2'-methyl-5'alpha-(phenylmethyl)ergotaman-3',6',18-trione]: the Ki in assay [2] was 3 nM; in assay [1], 12 nM.
Regarding `CC[C@@H](CO)NC(=O)[C@@H]1C=C2c3cccc4[nH]cc(c34)C[C@H]2N(C)C1` [Methylergometrine], in assay [2], the Ki amounted to 0.49 nM.
With `NCC[C@H](Oc1ccc(C(F)(F)F)cc1)c1ccccc1` [NORFLUOXETINE], the Ki in assay [2] came to 5060 nM; in assay [1], 286 nM.
For `CCNC(C)Cc1cccc(C(F)(F)F)c1` (stereo not drawn) [NSC_3337], the Ki in assay [1] was 3180 nM and 6250 nM and 3420 nM.
With `C[C@H](N)Cc1cccc(C(F)(F)F)c1` [Norfenfluramine (+)], the inhibitory constant (Ki) was 52.1 nM and 11.2 nM and 47.8 nM in assay [2]; 557 nM and 324 nM and 814 nM in assay [1].
`Clc1cccc(N2CCNCC2)c1` [mCPP] returned a Ki in assay [1] of 59 nM.
